Laboratory results reported in ChEMBL document CHEMBL1201862, “PubChem BioAssay data set” (2004).
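Compound exposure: 48 hours, 5 concentrations, 96-well plates. GI50 marks 50% less growth.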 Calls of active or inactive are those of the source. Cut-off read from the data, not from the text of the source: active = GI50 up to about 1.1 µM and inactive = higher.

Tests used:
Test in all cases: inhibition of tumour cell growth, NCI panel, 48 h
PC-3 = test system: PC-3
RXF 393 = test system: RXF 393
NCI-H460 = test system: NCI-H460
T47D = test system: T47D
SK-MEL-28 = test system: SK-MEL-28
HCT-116 = test system: HCT-116
Hs-578T = test system: Hs-578T
BT-549 = test system: BT-549
HCT-15 = test system: HCT-15
UACC-257 = test system: UACC-257
EKVX = test system: EKVX
NCI-H23 = test system: NCI-H23
RPMI-8226 = test system: RPMI-8226
SF-268 = test system: SF-268
DLD-1 = test system: DLD-1
DMS-273 = test system: DMS-273
XF498 = test system: XF498
LXFL 529 = test system: LXFL 529
DMS-114 = test system: DMS-114
HOP-18 = test system: HOP-18

| SMILES | GI50 (PC-3) | GI50 (RXF 393) | GI50 (NCI-H460) | GI50 (T47D) | GI50 (SK-MEL-28) | GI50 (HCT-116) | GI50 (Hs-578T) | GI50 (BT-549) | GI50 (HCT-15) [µM] | GI50 (UACC-257) | GI50 (EKVX) | GI50 (NCI-H23) | GI50 (RPMI-8226) | GI50 (SF-268) | GI50 (DLD-1) | GI50 (DMS-273) | GI50 (XF498) | GI50 (LXFL 529) | GI50 (DMS-114) | GI50 (HOP-18) |
| --- | --- | --- | --- | --- | --- | --- | --- | --- | --- | --- | --- | --- | --- | --- | --- | --- | --- | --- | --- | --- |
| CCC(Sc1cc(Cl)c(C)cc1S(=O)(=O)Nc1nc(N)nc(N(C)C)n1)C(=O)O (stereo not drawn) | > 10 µM (inactive) | > 10 µM (inactive) | > 10 µM (inactive) | > 10 µM (inactive) | > 10 µM (inactive) | > 10 µM (inactive) | > 10 µM (inactive) | > 10 µM (inactive) | > 10 | > 10 µM (inactive) | > 10 µM (inactive) | > 10 µM (inactive) | > 10 µM (inactive) | > 10 µM (inactive) | – | – | – | – | – | – |
| COc1ccc2oc(-c3cccnc3)cc(=O)c2c1 | – | > 100 µM (inactive) | 32.4 µM (inactive) | – | > 100 µM (inactive) | 80.7 µM (inactive) | – | – | – | > 100 µM (inactive) | – | > 100 µM (inactive) | 53 µM (inactive) | 58.3 µM (inactive) | > 100 µM (inactive) | 52 µM (inactive) | 95.1 µM (inactive) | 71.6 µM (inactive) | 80.7 µM (inactive) | – |
| COC(=O)C#CC(N)=O | – | 31.4 µM (inactive) | > 100 µM (inactive) | – | 17.9 µM (inactive) | 98.2 µM (inactive) | – | – | > 100 | 27.7 µM (inactive) | > 100 µM (inactive) | > 100 µM (inactive) | – | > 100 µM (inactive) | > 100 µM (inactive) | > 100 µM (inactive) | – | > 100 µM (inactive) | > 100 µM (inactive) | 53.5 µM (inactive) |
| CCOC(=O)C(SCCO)C(C(=O)OCC)n1ccc(=O)[nH]c1=O (stereo not drawn) | > 64 µM (inactive) | 24.2 µM (inactive) | 57.1 µM (inactive) | 38.1 µM (inactive) | 28.8 µM (inactive) | 16.3 µM (inactive) | 36.6 µM (inactive) | > 58.7 µM (inactive) | 17.5 | > 63.7 µM (inactive) | 75.9 µM (inactive) | 34.3 µM (inactive) | 17.5 µM (inactive) | 35.4 µM (inactive) | – | – | – | – | – | – |
| C[C@]12CCC(=O)C=C1CC[C@@H]1C2CC[C@]2(C)NC(=O)C(C#N)CC12 (stereo partly drawn) | – | > 100 µM (inactive) | > 100 µM (inactive) | – | > 100 µM (inactive) | > 100 µM (inactive) | – | – | > 100 | > 100 µM (inactive) | – | > 100 µM (inactive) | > 100 µM (inactive) | – | > 100 µM (inactive) | > 100 µM (inactive) | > 100 µM (inactive) | > 100 µM (inactive) | > 100 µM (inactive) | – |
| CC1OC(n2cc(F)c(=O)[nH]c2=O)CCC1O (stereo not drawn) | > 100 µM (inactive) | > 79.6 µM (inactive) | 50.8 µM (inactive) | > 100 µM (inactive) | > 100 µM (inactive) | 78 µM (inactive) | 99.1 µM (inactive) | > 100 µM (inactive) | > 94.4 | > 100 µM (inactive) | > 100 µM (inactive) | > 100 µM (inactive) | 56.1 µM (inactive) | > 100 µM (inactive) | > 100 µM (inactive) | > 100 µM (inactive) | – | > 100 µM (inactive) | – | 67.5 µM (inactive) |
| COc1cc(/C=C2/C(=O)NC(Cc3cc(OC)c(OC)c(C)c3OC)C(=O)N2Cc2ccccc2)c(OC)c(C)c1OC (stereo not drawn) | – | > 100 µM (inactive) | 38.1 µM (inactive) | – | > 100 µM (inactive) | > 100 µM (inactive) | – | – | – | 61.5 µM (inactive) | 38.9 µM (inactive) | 79.8 µM (inactive) | 24.3 µM (inactive) | 69.5 µM (inactive) | 72.3 µM (inactive) | 51.5 µM (inactive) | – | 34.8 µM (inactive) | 38.2 µM (inactive) | 18.3 µM (inactive) |
| CN[C@@H](C)[C@@H](NC)c1ccccc1 | – | > 100 µM (inactive) | > 100 µM (inactive) | – | > 100 µM (inactive) | > 100 µM (inactive) | – | – | > 100 | > 100 µM (inactive) | > 100 µM (inactive) | > 100 µM (inactive) | > 100 µM (inactive) | – | > 100 µM (inactive) | > 100 µM (inactive) | – | > 100 µM (inactive) | > 100 µM (inactive) | > 100 µM (inactive) |
| O=C(NCCNCCO)N/N=C/c1cccc([N+](=O)[O-])c1 | – | > 100 µM (inactive) | > 100 µM (inactive) | – | > 100 µM (inactive) | > 100 µM (inactive) | – | – | > 100 | > 100 µM (inactive) | – | > 100 µM (inactive) | > 100 µM (inactive) | > 100 µM (inactive) | > 100 µM (inactive) | > 100 µM (inactive) | – | > 100 µM (inactive) | > 100 µM (inactive) | > 100 µM (inactive) |
| CN(C)CCC1(C2=CCCC2)CC/C(=C\c2ccccc2)C1=O (stereo not drawn) | – | 12.5 µM (inactive) | 15.9 µM (inactive) | – | 21.8 µM (inactive) | 19.5 µM (inactive) | – | – | 13 | 15.2 µM (inactive) | 11.8 µM (inactive) | 21.8 µM (inactive) | 14.6 µM (inactive) | 21.5 µM (inactive) | 17.3 µM (inactive) | 15.7 µM (inactive) | – | 16.1 µM (inactive) | 16.1 µM (inactive) | 15.8 µM (inactive) |
